Source: US6716879B2, “Methods for anti-tumor therapy” (Compass Pharmaceuticals, LLC, priority 2000, dated 2004)
Where two headings read alike, the source gives them in different places. Values belong to the compound of their own block, whether it stands above or below them.

How the values were obtained:
[1] = system: Leiomyosarcoma/abdominal patient tumor cells; test: Alamar Blue anti-tumor screen, IC50 on patient tumor cells, tumor #1; format: cell-based, human; details: triplicate
Excerpt: (§1) Excess tissue specimens obtained from patients undergoing therapeutic surgical resections were freshly obtained at the time of surgery and a small portion of the specimen was sent for pathological testing. For diagnosis and grading of tissue samples (ie: prior to processing), hematoxylin and eosin stained tissue sections were examined by a pathologist. If the diagnosis and grading of the tissue concurred with the determination made by the surgical pathologist that provided the tissue, then the tissue was used in the screen. If there was no agreement, then two additional pathologists served as referees. If no consensus was reached, then the tissue was not used. […]
(§2) After tissue processing, the relative purity of the resulting cell suspension was determined by cytological examination after fixation and Papanicolaou staining. […]
(§3) Cell preparations that passed histological and cytological examination for diagnosis, grading, and cell purity were thawed at 37° C. and resuspended in tissue culture medium designed to maintain the cells during the incubation period. The live and dead cells were counted and the cells were diluted in culture medium to 1.0×10^3 live cells/test well for tumor cells and 3.3×10^3 live cells/test well for normal cells. […]
(§4) The kinetics of cellular re-dox reactions were subsequently measured at various times, for example at 3 hours, 3 days, and 5 days post-dye addition. […]

[2] = system: Fibrohistiocytic Sarcoma/lung patient tumor cells; test: Alamar Blue anti-tumor screen, IC50 on patient tumor cells, tumor #2; format: cell-based; details: Homo sapiens, triplicate
Excerpt: as §1, §2, §3, §4

[3] = system: Myxofibrosarcoma/thigh patient tumor cells; test: Alamar Blue anti-tumor screen, IC50 on patient tumor cells, tumor #3; format: cell-based; details: Homo sapiens, triplicate
Excerpt: as §1, §2, §3, §4

[4] = system: Leiomyosarcoma/pelvic patient tumor cells; test: Alamar Blue anti-tumor screen, IC50 on patient tumor cells, tumor #4; format: cell-based, human
Excerpt: (§5) Excess tissue specimens obtained from patients undergoing therapeutic surgical resections were freshly obtained at the time of surgery and a small portion of the specimen was sent for pathological testing. For diagnosis and grading of tissue samples (ie: prior to processing), hematoxylin and eosin stained tissue sections were examined by a pathologist. If the diagnosis and grading of the tissue concurred with the determination made by the surgical pathologist that provided the tissue, then the tissue was used in the screen. If there was no agreement, then two additional pathologists served as referees. If no consensus was reached, then the tissue was not used.
(§6) The remaining tissue was used to prepare cell suspensions. The tissue was initially treated enzymatically via standard methods until only undigested material remained. The digested cell suspension was filtered through one or more screens of between 40 micron and 100 micron porosity. The resulting cell suspension was further purified via isokinetic density centrifugation.
(§7) Additional normal cells were removed from the cell suspension by negative immunoselection with a combination of monoclonal antibodies linked to magnetic beads (Dynal) that were used according to the manufacturers' instructions. The remaining cells were placed into appropriate medium, frozen down in 1.0 mL aliquots, and stored until use.
After tissue processing, the relative purity of the resulting cell suspension was determined by cytological examination after fixation and Papanicolaou staining. Only those cell preparations greater than 80% tumor cells were used for testing of candidate compounds. If there was any doubt about the percentage of tumor cells in the cell preparation, additional pathologists served as referees to make a determination.
Cell preparations that passed histological and cytological examination for diagnosis, grading, and cell purity were thawed at 37° C. and resuspended in tissue culture medium designed to maintain the cells during the incubation period. The live and dead cells were counted and the cells were diluted in culture medium to 1.0×10^3 live cells/test well for tumor cells and 3.3×10^3 live cells/test well for normal cells.
The cells were added to microtiter plates and incubated at 37° C. overnight with 10 μM of the candidate compounds that were added at 1/10th the volume of the cell suspension. Alamar Blue (Accumed International, Westlake Ohio) was then added to the cells at 1/10 the volume of the well, and the cells were further incubated at 37° C. for various times. Alamar Blue dye measures cellular re-dox reactions (ie: cellular respiration) whereby a spectral shift occurs upon reduction of the dye. (Excitation 530 nm; emission 590 nm).
The kinetics of cellular re-dox reactions were subsequently measured at various times, for example at 3 hours, 3 days, and 5 days post-dye addition. These measurements, in comparison with control cells (untreated with compound) and media controls (test wells without cells) provide the percent inhibition of cellular mitochondrial respiration as a result of candidate compound treatment, as well as IC50 determinations.
In a blinded fashion, approximately 10,000 compounds were tested at a rate of 1,000-4,000 compounds per run set against various tumor types. The anti-tumor screen utilized was composed of three tiers as follows. In screen 1, patient tumor cells were tested in singles, with candidate compounds at a concentration of 10 μM. […]

[5] = system: Gastrointestinal stromal tumor (sarcoma) patient tumor cells; test: Alamar Blue anti-tumor screen, IC50 on patient tumor cells, tumor #5; format: cell-based; details: Homo sapiens, triplicate
Excerpt: as §1, §2, §3, §4

[6] = system: Gastrointestinal stromal tumor (sarcoma) patient tumor cells; test: Alamar Blue anti-tumor screen, IC50 on patient tumor cells, tumor #6; format: cell-based; details: Homo sapiens, triplicate
Excerpt: as §1, §2, §3, §4

[7] = system: Ovarian patient tumor cells; test: Alamar Blue anti-tumor screen, IC50 on patient tumor cells, tumor #7; format: cell-based; details: Homo sapiens, triplicate
Excerpt: as §1, §2, §3, §4

[8] = system: patient tumor cells; test: Anti-tumor screen 1 and 2 at 10 μM on patient tumor cells; format: cell-based, human; details: for inhibition at 10 µM: Homo sapiens
Excerpt: as §5, §6, §7, §2, §3, §4

[9] = system: patient normal cells; test: Anti-tumor screen 2 at 10 μM on patient normal cells; format: cell-based; details: Homo sapiens, screen 2, 10 μM, in duplicate
Excerpt: as §1, §2, §3, §4

- IC50 ([1]; Homo sapiens): 170 nM
- IC50 [1]: 150 nM
- IC50 [2]: 30 nM
- IC50 [3]: 49 nM
- IC50 ([4]; Homo sapiens, Tumor #4, Leiomyosarcoma/pelvic, patient tumor cells, triplicate (Table 2), read-out: IC50): 339 nM
- IC50 ([4]; Tumor #4, Leiomyosarcoma/pelvic, patient tumor cells, triplicate (Table 2), read-out: IC50): 410 nM
- IC50 [5]: 2400 nM
- IC50 [6]: 531 nM
- IC50 [7]: 35 nM
Structure (SMILES): O=C(Nc1ccc(Cl)cc1)c1cc(Cl)ccc1NS(=O)(=O)c1ccc(Cl)cc1 [Compound 1, 5-chloro-2-{[(4-chlorophenyl)sulfonyl]amino}-N-(4-chlorophenyl)benzamide]
- inhibition at 10 µM ([8]; screen 1, 10 μM, patient tumor cells, criterion: at least 80% inhibition and/or two standard deviations from the mean of the plate samples, read-out: inhibition (compared to cell and media controls)): ≥ 80%
- inhibition at 10 µM ([8]; screen 2, 10 μM, in duplicate, patient tumors, read-out: inhibition on tumor cells): ≥ 80%
- selectivity against tumor cells ([8]; three-tier anti-tumor screen, tumor versus normal patient cells, 10 μM): selectivity against tumor cells
- inhibition at 10 µM [9]: ≤ 20%

- IC50 ([4]; Homo sapiens): 44.7 nM
Structure (SMILES): O=C(Nc1ccc(Cl)cc1)c1cc(Br)ccc1NS(=O)(=O)c1ccc(Cl)cc1 [Compound 2, 5-bromo-2-{[(4-chlorophenyl)sulfonyl]amino}-N-(4-chlorophenyl)-benzamide]

- IC50 ([4]; Homo sapiens): 118 nM
Structure (SMILES): O=C(Nc1ccc(Cl)cc1)c1cc(Br)ccc1NS(=O)(=O)c1ccc(Cl)c([N+](=O)[O-])c1 [Compound 3, (5-bromo-2-{[(4-chloro-3-nitrophenyl)sulfonyl]amino}phenyl)-N-(4-chlorophenyl)carboxamide]

- IC50 ([4]; Homo sapiens, Tumor #4 of Table 2, Leiomyosarcoma/pelvic, tested as in Example 3 (Table 3), read-out: IC50): 209 nM
Structure (SMILES): O=C(Nc1ccc(Cl)cc1)c1cc2ccccc2cc1NS(=O)(=O)c1ccc(Cl)cc1 [Compound 5, N-(4-chlorophenyl)(3-{[(4-chlorophenyl)sulfonyl]amino}(2-naphthyl))-carboxamide]
